From US20020192171A1, “Method for preventing malodor” (priority 2001, published 2002)

Assays:
skin = conditions: human, in vivo
underarm odor = assay: Deodorant value test (modified), odor assessment on axillae of human subjects; format: in vivo; conditions: general statement in description
Method: A typical test for deodorant effect of the present invention was carried out as follows. The test solution was the composition containing 0.4% monensin. The positive control was 8.2% aluminum chlorhydrate, a level that is used in most deodorant or antiperspirant products on the market and 0.4% chlorhesidine digluconate, a level that is usually used for bacterial killing. The negative control was a vehicle consisting of 60% ethanol and 40% water. Three experienced underarm odor assessors who are able to rank correctly the odor intensities based on the deodorant value test system (U.S. Pat. No. 4,278,658) performed odor assessments. Deodorant assessment scores were recorded according to the malodor category scale, when applied directly to the axillae skin of a panel of human subjects. [table] The described in deodorant value test system has been modified by measuring odor intensity every 24 hours after treatment until odor intensity is detectable (average score 1 or up) on a 0-5 score instead of just 24 hours after In example 2, fifteen subjects selected by experienced odor assessors have average odor score 3.5 (range from score 3-5). […] At 24 hour intervals, each subject was evaluated for underarm odor by averaging the score of the three assessors until odor in test groups was detectable (score 1 or up).

For `CC[C@@]1([C@@H]2O[C@@H]([C@H]3O[C@@](O)(CO)[C@H](C)C[C@@H]3C)C[C@@H]2C)CC[C@H]([C@]2(C)CC[C@]3(C[C@H](O)[C@@H](C)[C@@H]([C@@H](C)[C@@H](OC)[C@H](C)C(=O)O)O3)O2)O1` [monensin, Monensin], the skin irritation (skin) was “did not cause any irritation” and the “duration of deodorant effect in preventing malodor” value (underarm odor) was “deodorant effect with a longer period than expected”.
